Patent publication US9321722B2, “Bis-indolic derivatives, their uses in particular as antibacterials” (UNIVERSITE JOSEPH FOURIER, priority 2011, dated 2016)
In brackets after ≈: the same amount, converted by molar mass.

Experiments:
[1] = tested on: S. aureus ATCC 106414 (VISA); assay: MIC microdilution (Table I-1); format: cell-based, Staphylococcus aureus; settings: Staphylococcus aureus, read after 18 hours, read-out: MIC
Experimental: (§1) The microdilution method recommended by the Clinical and Laboratory Standard Institute [M07-A8, Vol. 29, N^o 2] was used. The activity of indolic compounds was tested against 29 bacterial strains belonging to 17 different species and 12 different genera (Staphylococcus, Streptococcus, Enterococcus, Listeria, Bacillus, Haemophilus, Escherichia, Klebsiella, Enterobacter, Serratia, Pseudomonas, and Acinetobacter). Bacterial inocula were prepared in Mueller Hinton broth (MH2, bioMerieux, Marcy L'Etoile, France), supplemented with 10% sheep blood for fastidious species (i.e., Streptococcus pneumoniae and Haemophilus influenzae). They were dispensed in 96 well microtiter plates (5×10^5 CFU/ml of final inoculum). Indolic compounds were added to the wells as to obtain two-fold serial concentrations (0.50-128 mg/L of final concentrations). Plates were incubated at 37° C. in ambient air, or at 37° C. in 5% CO2 enriched atmosphere for fastidious species. […] Drug-free cultures served as growth controls. Cultures receiving gentamicin, ciprofloxacin or cefotaxime served as positive controls.

[2] = tested on: S. aureus ATCC 29213; assay: MIC microdilution (Table I-1); format: cell-based, Staphylococcus aureus; settings: Staphylococcus aureus, ATCC29213, read after 18 hours, read-out: MIC
Experimental: as §1

[3] = tested on: S. aureus ATCC 33592 (MRSA); assay: MIC microdilution (Table I-1); format: cell-based, Staphylococcus aureus; settings: Staphylococcus aureus, read after 18 hours, read-out: MIC
Experimental: as §1

[4] = tested on: S. aureus ATCC 6538; assay: MIC microdilution (Table I-1); format: cell-based, Staphylococcus aureus; settings: Staphylococcus aureus, ATCC6538, read after 18 hours, read-out: MIC
Experimental: as §1

[5] = tested on: S. aureus ATCC 9144; assay: MIC microdilution (Table I-1); format: cell-based, Staphylococcus aureus; settings: Staphylococcus aureus, ATCC9144, read after 18 hours, read-out: MIC
Experimental: as §1

[6] = tested on: S. aureus CIP 103428; assay: MIC microdilution (Table I-1); format: cell-based, Staphylococcus aureus; settings: Staphylococcus aureus, CIP103428, read after 18 hours, read-out: MIC
Experimental: as §1

[7] = tested on: S. aureus CIP 65.25 (MRSA); assay: MIC microdilution (Table I-1); format: cell-based, Staphylococcus aureus; settings: Staphylococcus aureus, read after 18 hours, read-out: MIC
Experimental: as §1

[8] = tested on: S. aureus CIP 65.6; assay: MIC microdilution (Table I-1); format: cell-based, Staphylococcus aureus; settings: Staphylococcus aureus, CIP65, read after 18 hours, read-out: MIC
Experimental: as §1

[9] = tested on: S. aureus SA-1199B; assay: MIC microdilution (Table I-1); format: cell-based, Staphylococcus aureus; settings: Staphylococcus aureus, SA1199B, 18 h
Experimental: as §1

[10] = tested on: S. epidermidis ATCC 12228; assay: MIC microdilution (Table I-1); format: cell-based, Staphylococcus epidermidis; settings: Staphylococcus epidermidis, ATCC12228, read after 18 hours, read-out: MIC
Experimental: as §1

[11] = tested on: S. epidermidis CIP 103627; assay: MIC microdilution (Table I-1); format: cell-based, Staphylococcus epidermidis; settings: Staphylococcus epidermidis, CIP103627, read after 18 hours, read-out: MIC
Experimental: as §1

[12] = tested on: S. epidermidis CIP 81.55; assay: MIC microdilution (Table I-1); format: cell-based, Staphylococcus epidermidis; settings: Staphylococcus epidermidis, CIP81, read after 18 hours, read-out: MIC
Experimental: as §1

[13] = tested on: E. faecalis ATCC 29212; assay: MIC microdilution (Table I-1); format: cell-based; settings: Enterococcus faecalis, ATCC29212, read after 18 hours, read-out: MIC
Experimental: as §1

[14] = tested on: E. faecium CIP 54.32; assay: MIC microdilution (Table I-1); format: cell-based; settings: Enterococcus faecium, CIP54, read after 18 hours, read-out: MIC
Experimental: as §1

[15] = tested on: Enterobacter cloacae ATCC 13047; assay: MIC microdilution (Table I-1); format: cell-based; settings: ATCC13047, read after 18 hours
Experimental: as §1

[16] = tested on: Haemophilus influenzae ATCC 49766; assay: MIC microdilution (Table I-1); format: cell-based; settings: ATCC49766; Haemophilus influenzae ATCC 49766; read after 18 hours; read-out: MIC
Experimental: as §1

[17] = tested on: Pseudomonas aeruginosa CIP 5933; assay: MIC microdilution (Table I-1); format: cell-based; settings: CIP5933, read after 18 hours
Experimental: as §1

[18] = tested on: S. agalactiae (group B) ATCC 12400; assay: MIC microdilution (Table I-1); format: cell-based; settings: Streptococcus agalactiae, ATCC12400, read after 18 hours, read-out: MIC
Experimental: as §1

[19] = tested on: S. aureus ATCC 25923; assay: MIC microdilution (Table I-1); format: cell-based; settings: Staphylococcus aureus, ATCC25923, read after 18 hours
Experimental: as §1

[20] = tested on: S. mitis CIP 103335; assay: MIC microdilution (Table I-1); format: cell-based; settings: Streptococcus mitis, CIP103335, read after 18 hours, read-out: MIC
Experimental: as §1

[21] = tested on: S. pneumoniae ATCC 49619; assay: MIC microdilution (Table I-1); format: cell-based; settings: Streptococcus pneumoniae, ATCC49619, read after 18 hours
Experimental: as §1

[22] = tested on: S. pyogenes (group A) CIP 104226; assay: MIC microdilution (Table I-1); format: cell-based; settings: Streptococcus pyogenes, CIP104226, read after 18 hours, read-out: MIC
Experimental: as §1

[23] = tested on: Serratia marcescens CIP 103551; assay: MIC microdilution (Table I-1); format: cell-based; settings: CIP103551, read after 18 hours
Experimental: as §1

[24] = tested on: S. pneumoniae ATCC 6303; assay: MIC microdilution (Table I-1); format: cell-based, Streptococcus pneumoniae; settings: Streptococcus pneumoniae, ATCC6303, read after 18 hours, read-out: MIC
Experimental: as §1

[25] = tested on: HCT116 (human colon tumor); assay: In vitro cytotoxicity; format: cell-based; settings: for inhibition at 10 µM: HCT-116, HCT116, 10^−5 M, read-out: % of cellular growth inhibition; for inhibition at 1 µM: HCT-116, HCT116, 10^−6 M, read-out: % of cellular growth inhibition (converted)
Experimental: (§2) In vitro cytotoxicity was assayed on three cell lines—KB (human mouth carcinoma), MCR5 (human lung fibroblast) and HCT116 (human colon tumor). Results are presented in table III as % of cellular growth inhibition in presence of 10^−5 M and 10^−6 M of the tested bis-indolic derivatives.

[26] = tested on: KB (human mouth carcinoma); assay: In vitro cytotoxicity; format: cell-based; settings: KB; for inhibition at 10 µM: 10^−5 M, read-out: % of cellular growth inhibition; for inhibition at 1 µM: 10^−6 M, read-out: % of cellular growth inhibition (converted)
Experimental: as §2

[27] = tested on: MRC5 (human lung fibroblast); assay: In vitro cytotoxicity; format: cell-based; settings: for inhibition at 10 µM: MRC5, 10^−5 M, read-out: % of cellular growth inhibition; for inhibition at 1 µM: MRC5, 10^−6 M, read-out: % of cellular growth inhibition (converted)
Experimental: as §2

Row | Compound | MIC [1] [µg/mL] | MIC [2] [µg/mL] | MIC [3] [µg/mL] | MIC [4] [µg/mL] | MIC [5] [µg/mL] | MIC [6] [µg/mL] | MIC [7] [µg/mL] | MIC [8] [µg/mL] | MIC [9] [µg/mL] | MIC [10] [µg/mL] | MIC [11] [µg/mL] | MIC [12] [µg/mL] | MIC [13] [µg/mL] | MIC [14] [µg/mL] | MIC [15] [µg/mL] | MIC [16] [µg/mL] | MIC [17] [µg/mL] | MIC [18] [µg/mL] | MIC [19] [µg/mL] | MIC [20] [µg/mL] | further results
1 | O=C(C(=O)N1CCCCC1c1c[nH]c2ccccc12)c1c[nH]c2ccccc12 (stereo not drawn) [Compound 6a, 1-(2-(1H-Indol-3-yl)piperidin-1-yl)-2-(1H-indol-3-yl)ethane-1,2-dione] | > 128 | > 128 | > 128 | > 128 | > 128 | > 128 | > 128 | > 128 | > 128 | > 128 | > 128 | > 128 | > 128 | > 128 | > 128 | > 128 | > 128 | > 128 | > 128 | > 128 | MIC [21]: > 128 µg/mL; MIC [22]: > 128 µg/mL; MIC [23]: > 128 µg/mL; MIC [24]: > 128 µg/mL; inhibition at 10 µM [25]: 37 ± 6%; inhibition at 1 µM [25]: 0%; inhibition at 10 µM [26]: 20 ± 13%; inhibition at 1 µM [26]: 0%; inhibition at 10 µM [27]: 28 ± 9%; inhibition at 1 µM [27]: 0%
2 | CC(C)(C)OC(=O)N1CCN(C(=O)C(=O)c2c[nH]c3ccc(Br)cc23)C(c2c[nH]c3ccc(Br)cc23)C1 (stereo not drawn) [Compound 6f, tert-Butyl 3-(5-bromo-1H-indol-3-yl)-4-(2-(5-bromo-1H-indol-3-yl)-2-oxoacetyl) piperazine-1-carboxylate] | > 128 | 2 to 4 (≈ 3.17 to 6.35 µM) | > 128 | > 128 | > 128 | > 128 | > 128 | > 128 | > 128 | > 128 | > 128 | > 128 | > 128 | > 128 | > 128 | > 128 | > 128 | > 128 | > 128 | > 128 | MIC [21]: > 128 µg/mL; MIC [22]: > 128 µg/mL; MIC [23]: > 128 µg/mL; MIC [24]: > 128 µg/mL; inhibition at 10 µM [25]: 81 ± 2%; inhibition at 1 µM [25]: 0%; inhibition at 10 µM [26]: 92 ± 3%; inhibition at 1 µM [26]: 0%; inhibition at 10 µM [27]: 39 ± 4%; inhibition at 1 µM [27]: 0%
